Measurements: paper PMC3605511, “Tumor P-Glycoprotein Correlates with Efficacy of PF-3758309 in in vitro and in vivo Models of Colorectal Cancer” (Frontiers in Pharmacology, 2013)

Columns and labels:
SW48 cell line xenograft = experiment: CRC cell line xenograft efficacy, SW48; assay type: in vivo, mice; settings: 25 mg/kg orally twice daily, 14–28 days, end of study tumor volumes
Protocol: For cell line xenografts, CRC cells were harvested in exponential phase growth and resuspended in a 1:1 mixture of serum-free RPMI 1640 and Matrigel (BD Biosciences). Five to ten million cells per mouse were injected subcutaneously into the flank using a 23-gauge needle. Mice were monitored daily for signs of toxicity and were weighed twice weekly. Tumor size was evaluated twice per week by caliper measurements using the following formula: tumor volume = length × width^2 × 0.52. When tumors reached 200–300 mm^3 mice were randomized into two groups with at least 10 tumors per group. Mice were then treated for 14–28 days (until control tumor volume reach ∼1500 mm^3) with either vehicle control (0.5% methylcellulose), or PF-3758309 (25 mg/kg) twice daily by oral gavage.
Human tumor xenograft models were used to evaluate the efficacy of PF-309 in vivo. Eleven different CRC cell line tumor xenografts were treated with 25 mg/kg PF-309 twice daily by oral gavage for 14–28 days (until control tumor volumes reached ∼1500 mm^3). Tumor volumes were measured throughout the study and the % growth inhibition was calculated from the average end of study tumor volumes by:
% Growth Inhibition= (average control volume−average treated volume)/average control volume×100%

BCRP = molecular target: T1, BCRP (Homo sapiens, UniProt Q9UNQ0); experiment: BCRP-MDCKII-LE transwell assay (BCRP efflux); assay type: in vitro ADME; design: A → B: scale not given here
T1 construct: expressed in transfected cells; host or cells: BCRP-MDCKII-LE cells (canine MDCKII subpopulation with low endogenous P-gp)
Protocol: Permeability and transporter substrate assays were performed as previously published (Feng et al., [2008]; Callegari et al., [2011]; Di et al., [2011]). Permeability assays were conducted in MDCKII-LE cells, which were generated by isolation of a subpopulation of cells with low expression of endogenous P-gp (Feng et al., [2008]; Callegari et al., [2011]; Di et al., [2011]). The use of MDCKII-LE cells are used to measure the passive permeability of compounds in place of MDCK wild-type or Caco-2 cells since both MDCK wild-type and Caco-2 cells are known to have some level of endogenous transporter expression which can affect the permeability measurement. P-gp efflux was determined in MDR1-MDCK cells and BCRP efflux was measured in BCRP-MDCKII-LE cells.
MDR1-MDCK and BCRP-MDCKII-LE transwell assays measure the effect of P-gp and BCRP, respectively, on transcellular flux. The efflux ratio, ratio of the B → A flux to the A → B flux, of PF-309 was measured to be 34.9 ± 7.9 in the MDR1-MDCK assay, indicating it is a strong substrate for P-gp. PF-309 was also determined to be substrate for BCRP as the efflux ratio was measured to be 7.6 ± 1.1. As a reference, compounds with efflux ratios >2 are considered to be substrates (Callegari et al., [2011]).

LS1034 = experiment: Cell proliferation assay, LS1034; assay type: cell-based; settings: Homo sapiens, LS-1034; LS1034, PF-309 alone, 72 h; 1 uM was the maximum concentration used
Protocol: (§1) Cytotoxic/proliferation effects were determined using the sulforhodamine B (SRB) assay (Skehan et al., [1990]) or by resazurin. Briefly, cells in logarithmic growth phase were transferred to 96 well flat bottom plates with lids. One-hundred microliter cell suspensions containing 1500–5000 viable cells were plated into each well and incubated overnight prior to exposure with increasing concentrations of PF-309 for 3–5 days, dependent upon cell type. Media was removed and cells were fixed with cold 10% trichloroacetic acid for 30 min at 4°C. Cells were then washed with water and stained with 0.4% SRB (Fisher Sci., Pittsburgh, PA, USA) for 30 min at room temperature, washed again with 1% acetic acid, followed by stain solubilization with 10 mM tris at room temperature. The plate was then read on a plate reader (Biotek Synergy 2, Winooski, VT, USA) set at an absorbance wavelength of 565 nm. Cell proliferation curves were derived from the raw absorbance (OD) data.
(§2) Since PF-309 appeared to be a strong P-gp and BCRP substrates, we sought to evaluate if the transporters influenced sensitivity in vitro. We evaluated the sensitivity of CRC cell lines to PF-309 treatment in a panel of 27 lines. Cells were exposed to PF-309 at a range of concentrations for 72 h and cell content measured by SRB assay (see Pitts et al., [2013]). […]

COLO205 = experiment: Cell proliferation assay, COLO205; assay type: cell-based; settings: Homo sapiens, COLO 205; COLO205, 72 h, SRB assay
Protocol: as §1, §2

DLD1 PgP_KD2 = experiment: Proliferation after shRNA knockdown of P-gp, DLD1 PgP_KD2; assay type: cell-based; settings: Homo sapiens, DLD-1; DLD1 PgP_KD2 :50, P-gp shRNA knockdown
Protocol: as §1
The pGIPZ Pgp-specific shRNA expression cassettes, along with control shRNA plasmids including the original pGIPZ vector were purchased from Open Biosystems (Birmingham, AL, USA). […] Successful knockdown of specific genes and gene products was confirmed by semi-quantitative RT-PCR and immunoblotting with specific antibodies. […]

SW48 = experiment: Cell proliferation assay, SW48; assay type: cell-based; settings: Homo sapiens; SW48, 72 h, SRB assay
Protocol: as §1, §2

HCT116 = experiment: Cell proliferation assay, HCT116; assay type: cell-based; settings: Homo sapiens, HCT-116; HCT116, 72 h, SRB assay
Protocol: as §1, §2

T1 sequence (Q9UNQ0 whole entry): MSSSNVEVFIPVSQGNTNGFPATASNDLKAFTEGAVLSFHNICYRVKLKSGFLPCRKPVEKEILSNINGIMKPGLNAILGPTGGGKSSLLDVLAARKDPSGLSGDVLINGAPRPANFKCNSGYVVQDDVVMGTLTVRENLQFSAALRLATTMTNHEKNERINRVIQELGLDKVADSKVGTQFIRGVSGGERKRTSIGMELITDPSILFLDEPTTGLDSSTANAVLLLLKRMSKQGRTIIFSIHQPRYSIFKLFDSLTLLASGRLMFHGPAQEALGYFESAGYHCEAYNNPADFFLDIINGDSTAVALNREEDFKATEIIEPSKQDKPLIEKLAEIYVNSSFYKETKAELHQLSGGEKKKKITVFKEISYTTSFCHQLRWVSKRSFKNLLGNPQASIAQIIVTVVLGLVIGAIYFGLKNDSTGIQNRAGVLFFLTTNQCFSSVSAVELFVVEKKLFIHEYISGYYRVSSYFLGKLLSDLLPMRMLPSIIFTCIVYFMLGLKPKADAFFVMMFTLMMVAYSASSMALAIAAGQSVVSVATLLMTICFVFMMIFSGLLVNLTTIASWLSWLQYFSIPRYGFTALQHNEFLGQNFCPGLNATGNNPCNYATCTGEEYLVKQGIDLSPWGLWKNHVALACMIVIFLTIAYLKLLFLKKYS

efflux ratio (BCRP; dog, ratio of B → A flux to A → B flux, >2 = substrate): 7.6 | A → B (BCRP; transwell flux): ;1.4 ± 0.1 cm/s | IC50 (COLO205): 4.2 ± 1.4 nM | IC50 (DLD1 PgP_KD2): 18 nM | IC50 (SW48): 11.9 ± 4.4 nM | IC50 (HCT116): 4.7 ± 0.9 nM
SMILES: Cc1nc(Nc2n[nH]c3c2CN(C(=O)N[C@H](CN(C)C)c2ccccc2)C3(C)C)c2sccc2n1 [PF-309]
% Growth inhibition (SW48 cell line xenograft): 45% | IC50 (LS1034): > 1000 nM
